Data on 1 molecule can be found in patent publication US6331555A, “Treatment of platelet derived growth factor related disorders such as cancers” (priority 1999, dated 2001).

For one data set, the system named is EGF receptor. The data set can be described thus: EGF receptor autophosphorylation, T98G glioblastoma cells. It is filed as cell-based, human. Particulars: 200, 500; 50 ng/ml EGF. The method, then:
(§1) Proteins were then separated by SDS-polyacrylamide gel electrophoresis (PAGE). Proteins containing phosphorylated tyrosine were identified by western blotting with an anti-phosphotyrosine antibody. The level of phosphorylated tyrosine was determined by quantitating the amount of bound anti-phosphotyrosine. Quantitation was carried out by peak area integration using a Molecular Dynamics Computing Densitometer (Model 300S), and Image Quant v3.0 software (Molecule Dynamics). Data were expressed as relative peak.intensity (phosphorylation of a receptor divided by the total amount of phosphorylated tyrosine).
(§2) T98G cells were plated in MCDB105 medium containing 2% FBS and incubated for 24 hours at 37° C. […] The cells were then treated with ligand for 10 minutes (20 ng/ml PDGF-BB or 50 ng/ml EGF). The cells were lysed and the level of phosphorylated receptor was quantitated as described in Example 1.

In another data set the test system is PDGF-R. Briefly: PDGF-R autophosphorylation, T98G glioblastoma cells. It is filed as cell-based, human. As to conditions: 200, 500, 1000 mM; 20 ng/ml PDGF-BB. The method, then:
as §1, §2

For another data set, the system named is spleen cells. The data set can be described thus: Normal immune function in mice responding to a primary immunization. The class given is in vivo, mouse. As to conditions: 20 mg/kg/day. The text has this: At the indicated times, animals were sacrificed, and the spleens were aseptically removed and placed into sterile medium. Spleens were processed into single cell suspensions by grinding between sterile frosted glass microscope slides. After a single wash to remove tissue debris, the spleen cells were resuspended in a hypotonic ammonium chloride buffer to lyse erythrocytes. Lymphocytes were washed and resuspended to the appropriate concentrations in complete medium, consisting of RPMI plus 10% heat-inactivated FBS, 2 mM glutamine, 50 μM β-mercaptoethanol, and penicillin-streptomycin. The responses of the lymphocytes were examined in the following assays according to accepted procedures (Current Protocols in Immunology. Coligan, J. E., Kruisbeek, A. M., Margulies, D. H., Shevach, E. M., Strober, W. (eds.) John Wiley and Sons, Inc., 1992).
The T-cell mitogen, ConA, and the T-cell independent B-cell mitogen, LPS, were added to 96-well round-bottom wells at the indicated concentrations. Lymphocytes from normal, vehicle-dosed, and drug-dosed animals were added at a final concentration of 2.5×10^5 /well. Cultures were usually set up in triplicate or quadruplicate. The plates were incubated at 37° C. in a humidified atmosphere containing 5% CO2 for the indicated times. Supernatants (approximately 100 μL) were carefully removed from the wells and stored at -80° C. for lymphokine and immunoglobulin analyses. To measure proliferation of the lymphocytes, 1 μCi of ^3 H-thymidine was added to each well, and the plates were incubated for 6 hr. The cultures were harvested onto glass fiber filters, and the incorporated radioactivity was quantitated by liquid scintillation counting (Betaplate, Wallac).
Lymphocytes from normal, vehicle-dosed, and drug-dosed animals were plated at 2.5×10^5 /well in round-bottom 96-well plates. Stimulator cells were then added at the same cell concentration. […] The plates were incubated for 3 to 4 days, at which time supernatants were harvested and the cultures were pulsed as described for the mitogen assays.
Supernatants from mitogen and MLR cultures were assayed for IL-2 and IL-6 content by the ability to support the growth of factor-dependent cell lines. HT-2 cells (10^4 /well, IL-2-dependent) and 7TD1 cells (2×10^3 /well, IL-6-dependent) were plated in 96-well flat-bottom plates, in 50 μL/well. Supernatants were added in 50 μL/well, and the plates were incubated overnight (HT-2) or four days (7TD1). Cellular proliferation was determined in the MTT colorimetric assay (Appendix 3.1).
Flat bottom 96-well EIA plates were coated with goat anti-mouse Ig antibodies (Southern Biotechnology) overnight at 4° C. The plates were blocked by the addition of PBS+1% BSA. After washing with PBS, supernatants from murine mitogen and MLR cultures were added and incubated at room temperature for 1 hr. The plates were washed with PBS, then HRP-labeled goat anti-mouse Ig antibodies were added and incubated at room temperature for 1 hr. The plates were washed and developed by the addition of substrate (ABTS).
BALB/c mice were immunized SC with 50 μg keyhole limpet hemocyanin (KLH) suspended in complete Freund's adjuvant (CFA); control mice were mock-immunized with an emulsion of phosphate-buffered saline (PBS) in CFA. […] On day 14, all mice were sacrificed, and their spleen cells were assayed. In addition , immune e responses to KLH and tetanus toxoid were measured as described in Appendix 5.

The format of data set [1] is in vivo, mouse. As to conditions: IP A10 40 mg/kg single dose. As to the method: Plasma was prepared and frozen in liquid nitrogen. Tissues and organs were resected and immediately frozen in liquid nitrogen. After the addition of an internal standard, plasma samples were acidified with HCl and extracted with acetonitrile. The acetonitrile fraction was evaporated to dryness in a vacuum centrifuge with heating and redissolved in methanol. Tissue and organ samples were homogenized according to the weight ratio of 1:5 (w:v) in 50 mM Tris-HCl, pH 7.4, at 20,000 rev/min, using a tissue homogenizer (Brinkmann Polytron Model PT3000). After the addition of an internal standard, the homogenate was acidified with HCl and then extracted with acetonitrile. The acetonitrile fraction was then extracted with an equal volume of diethyl ether. The ether fraction was evaporated to dryness in a vacuum centrifuge with heating and redissolved in methanol.
Samples for HPLC analysis were injected onto a Hewlett Packard Hypersil 5-μm C18 cartridge column (100×4.6 mm). […] The compounds were monitored by UV absorption at 254 nm using a Hewlett-Packard diode-array detector (HP Model 1090). Plasma and tissue concentrations were determined from standard curves using peak area for quantitation. […]
Table XXII. […] Plasma and brain samples were prepared and analyzed by HPLC as described in Appendix 6. All results were calculated by the method of internal standardization. NT= not tested, ND= not detected.

Bounds are passed on as bounds.

`Cc1oncc1C(=O)Nc1ccc(C(F)(F)F)cc1` [Compound A10, 5-methylisoxazole-4 carboxylic acid-(4-trifluromethyl)-anilide]: in the data set on EGF receptor, the “EGF stimulated autophosphorylation of EGF-R” value is recorded as “little if any effect on the ability of EGF to stimulate autophosphorylation of EGF-R”. For the same molecule, in the data set with PDGF-R, the “autophosphorylation of PDGF-R by PDGF” value is “inhibited autophosphorylation of PDGF-R by PDGF”. Moreover, the IL-2 production in the data set with spleen cells (Allo), in the data set on spleen cells (ConA), with spleen cells (KLH) and in the data set with spleen cells (LPS) was 0 throughout. The IL-6 production with spleen cells (Allo), with spleen cells (ConA), in the data set on spleen cells (KLH) and in the data set with spleen cells (LPS) was 0 each time. The Ig production in the data set on spleen cells (Allo), with spleen cells (ConA), with spleen cells (KLH) and with spleen cells (LPS) was 0 throughout. Besides, the “time by which A10 completely converted and undetectable” value in data set [1] was at most 1 h.
